# Results from patent US6362369B1, “Phthalic acid diamide derivatives fluorine-containing aniline compounds as starting material, agricultural and horticultural insecticides, and a method for application of the insecticides” (Nihon Nohyaku Co., Ltd., priority 1997, dated 2002).
# Test system: diamondback moth (Plutella xylostella)
# Test: Insecticidal effect on diamondback moth (Test Example 1)
# Format: in vivo
# Settings: diamondback moth; judged by the criterion of Test Example 1
# Description: Insecticidal effect on diamondback moth (Plutella xylostella) Adult diamondback moths were released and allowed to oviposit on a Chinese cabbage seedling. […] After air-drying, it was allowed to stand in a room thermostated at 25° C. Six days after the immersion, the hatched insects were counted. The mortality was calculated according to the following equation and the insecticidal effect was judged according to the criterion shown below. The test was carried out with triplicate groups of 10 insects. [table]
row,Compound,"Insecticidal effect (Test Example 1), judged from mortality"
1,CCCNC(=O)c1cccc(I)c1C(=O)Nc1ccc(OC(F)F)cc1C [compound 1451],A (100)
2,CC(C)NC(=O)c1c(I)cccc1C(=O)Nc1ccc(C(F)(C(F)(F)F)C(F)(F)F)cc1-c1ccccc1 [compound 1767],A (100)
3,CC(C)c1cc(C(F)(C(F)(F)F)C(F)(F)F)ccc1NC(=O)c1cccc(I)c1C(=O)NC(C)(C)C [compound 1692],A (100)
4,Cc1cc(C(F)(F)C(F)(F)F)c(C)cc1NC(=O)c1cccc(I)c1C(=O)NC(C)(C)C [compound 1611],A (100)

# Same assay, conditions: diamondback moth; judged by the mortality criterion of Test Example 1
row,Compound,"Insecticidal effect, Test Example 1"
1,CCNC(=O)c1ccccc1C(=O)Nc1ccc(C(F)(F)F)cc1 [compound 7],A (100)
2,CC(C)NC(=O)c1c(Cl)cccc1C(=O)Nc1cc(Cl)c(OC(F)F)c(Cl)c1 [compound 151],A (100)
3,Cc1cc(Oc2cccc(C(F)(F)F)c2)ccc1NC(=O)c1ccccc1C(=O)NC(C)C [compound 74],A (100)
4,CC(C)NC(=O)c1cccc(Cl)c1C(=O)Nc1ccc2[nH]c(C(F)(F)F)nc2c1 [compound 256],A (100)
5,Cc1c(Cl)ccc(NC(=O)c2c(I)cccc2C(=O)NC(C)C)c1C [compound 434],A (100)
6,CC(C)NC(=O)c1ccc(Cl)cc1C(=O)Nc1ccc(F)c(F)c1F [compound 194],A (100)
7,CCc1cc(Cl)ccc1NC(=O)c1c(Br)cccc1C(=O)NC(C)C [compound 310],A (100)
8,CC(C)NC(=O)c1cccc(Cl)c1C(=O)Nc1ccc(SCC(F)(F)F)cc1 [compound 202],A (100)
9,CCCCc1ccc(NC(=O)c2c(Cl)cccc2C(=O)NC(C)C)cc1 [compound 195],A (100)
10,CC(C)NC(=O)c1cccc(Cl)c1C(=O)Nc1cc(Cl)c(OC(F)F)c(Cl)c1 [compound 227],A (100)
11,CC(C)NC(=O)c1cccc(I)c1C(=O)Nc1ccc(SC(F)(F)C(F)F)cc1 [compound 422],A (100)
12,Cc1cc(Oc2cccc(C(F)(F)F)c2)ccc1NC(=O)c1cccc(I)c1C(=O)NC(C)C [compound 398],A (100)
13,Cc1cc(OC(C)C)ccc1NC(=O)c1c(I)cccc1C(=O)NC(C)C [compound 442],A (100)
14,CNC(=O)c1c(C(=O)Nc2cc(Cl)ccc2C)cccc1[N+](=O)[O-] [compound 3],C (89-80)
15,Cc1cc(C)c(NC(=O)c2c(Br)cccc2C(=O)NC(C)C)c(C)c1 [compound 304],A (100)

# Same assay, conditions: diamondback moth; mortality judged by criterion of Test Example 1
row,Compound,"Insecticidal effect, Test Example 1"
1,Cc1cc(C(F)(F)C(F)(F)F)ccc1NC(=O)c1c(Cl)cccc1C(=O)NC(C)c1ccc(Cl)cc1 (stereo not drawn) [compound 1367],A (100)
2,Cc1cc(C(F)(F)C(F)(F)F)ccc1NC(=O)c1c(I)cccc1C(=O)NCC(C)C [compound 1006],A (100)
3,Cc1cc(C(F)(F)C(F)(F)F)ccc1NC(=O)c1c(Cl)cccc1C(=O)NCc1ccncc1 [compound 1395],A (100)
4,Cc1cc(C(F)(F)C(F)(F)F)ccc1NC(=O)c1cccc(Cl)c1C(=O)NC(CO)c1ccc(-c2ccccc2)cc1 (stereo not drawn) [compound 1412],A (100)
5,CC(C)NC(=O)c1c(I)cccc1C(=O)Nc1ccc2nc(C(F)(F)C(F)(F)F)oc2c1 [compound 1180],A (100)
6,Cc1cc(C(F)(F)C(F)(F)F)ccc1NC(=O)c1c(Cl)cccc1C(=O)NCCOc1ccc(Cl)cc1 [compound 1373],A (100)
7,Cc1cc(C(F)(F)C(F)(F)F)ccc1NC(=O)c1cccc(Cl)c1C(=O)NCCc1ccccc1Cl [compound 1356],A (100)
8,CCN(CC)C(=O)c1cccc([N+](=O)[O-])c1C(=O)Nc1ccc(OC(F)(F)F)cc1 [compound 1139],A (100)
9,Cc1cc(OC(F)F)ccc1NC(=O)c1cccc(I)c1C(=O)N(C)Cc1ccccc1 [compound 1440],A (100)
10,COc1ccc(CNC(=O)c2cccc(Cl)c2C(=O)Nc2ccc(C(F)(F)C(F)(F)F)cc2C)cc1 [compound 1348],A (100)
11,COc1cccc(CNC(=O)c2c(Cl)cccc2C(=O)Nc2ccc(C(F)(F)C(F)(F)F)cc2C)c1 [compound 1345],A (100)
12,Cc1cc(C(F)(F)C(F)(F)F)ccc1NC(=O)c1ccccc1C(=O)NC(CO)c1ccccc1 (stereo not drawn) [compound 1379],A (100)
13,Cc1cc(C(F)(F)C(F)(F)F)ccc1NC(=O)c1c(Cl)cccc1C(=O)NC(C)c1cccc(Cl)c1 (stereo not drawn) [compound 1365],A (100)

# Same assay, conditions: mortality judged according to the criterion shown in Test Example 1
row,Compound,"Insecticidal effect on diamondback moth (Test Example 1), judged grade"
1,CC(C)NC(=O)c1c(C(=O)Nc2ccc3c(c2)nc(C(F)(F)F)n3C)cccc1[N+](=O)[O-] [compound 737],A (100)
2,CCc1cccc(CC)c1NC(=O)c1cccc([N+](=O)[O-])c1C(=O)NC(C)C [compound 653],A (100)
3,C=CCNC(=O)c1c(C(=O)Nc2cc(Cl)ccc2C)cccc1[N+](=O)[O-] [compound 866],D (79-50)
4,Cc1cccc(C(=O)Nc2ccc(OC(F)(F)F)cc2)c1C(=O)NC(C)C [compound 749],A (100)
5,CSc1ccccc1NC(=O)c1cccc([N+](=O)[O-])c1C(=O)NC(C)C [compound 622],A (100)
6,Cc1ccc(Br)cc1NC(=O)c1cccc([N+](=O)[O-])c1C(=O)NC(C)C [compound 672],A (100)
7,Cc1cc(Cl)c(Cl)cc1NC(=O)c1cccc([N+](=O)[O-])c1C(=O)NC(C)C [compound 668],A (100)
8,CC(C)NC(=O)c1cccc(Cl)c1C(=O)Nc1ccc(C=C(Cl)Cl)cc1 [compound 916],A (100)
9,Cc1cc(Cl)ccc1NC(=O)c1cccc([S+]([O-])C(C)C)c1C(=O)NC(C)C (stereo not drawn) [compound 793],A (100)
10,Cc1cc(NC(=O)c2cccc([N+](=O)[O-])c2C(=O)NC(C)C)c(F)cc1Cl [compound 657],D (79-50)
11,Cc1cc(SC(C)C)ccc1NC(=O)c1cccc([N+](=O)[O-])c1C(=O)NC(C)C [compound 721],A (100)
12,CCC(C)NC(=O)c1cccc(Cl)c1C(=O)Nc1ccc(OC(F)F)cc1C (stereo not drawn) [compound 837],A (100)
13,Cc1cc(Br)ccc1NC(=O)c1cccc([N+](=O)[O-])c1C(=O)NCc1cccnc1 [compound 888],D (79-50)
14,CC(C)NC(=O)c1c(C(=O)Nc2ccc(OC(F)F)c(Cl)c2)cccc1[N+](=O)[O-] [compound 658],A (100)
15,COCCNC(=O)c1c(C(=O)Nc2cc(Cl)ccc2C)cccc1[N+](=O)[O-] [compound 871],A (100)
16,CCc1cc(I)ccc1NC(=O)c1c(I)cccc1C(=O)NC(C)C [compound 920],A (100)

row,Compound,"Insecticidal effect on diamondback moth (Test Example 1), judged grade"
1,Cc1cc(OC(F)F)ccc1NC(=O)c1cccc([N+](=O)[O-])c1C(=O)N(C)C(C)C [compound 825],A (100)
2,CC(C)NC(=O)c1c(F)cccc1C(=O)Nc1ccc(SCC(F)(F)F)cc1 [compound 478],A (100)
3,Cc1ccc(Cl)cc1NC(=O)c1c(C(=O)NC(C)C)cccc1C(F)(F)F [compound 766],A (100)
4,CC(C)NC(=O)c1c(C(=O)Nc2cccc(F)c2F)cccc1[N+](=O)[O-] [compound 638],B (99-90)
5,CC(C)NC(=O)c1c(C(=O)Nc2cccc(C#N)c2)cccc1[N+](=O)[O-] [compound 597],B (99-90)
6,CC(C)NC(=O)c1c(C(=O)Nc2ccc(F)c(F)c2F)cccc1[N+](=O)[O-] [compound 645],A (100)
7,Cc1cc(OC(F)F)ccc1NC(=O)c1cccc([N+](=O)[O-])c1C(=O)NCC(C)C [compound 832],A (100)
8,Cc1cccc(C)c1NC(=O)c1cccc([N+](=O)[O-])c1C(=O)NC(C)C [compound 650],A (100)
9,Cc1cc(OC(F)(F)C(F)C(F)(F)F)ccc1NC(=O)c1c(C(=O)NC(C)C)cccc1[N+](=O)[O-] (stereo not drawn) [compound 743],D (79-50)
10,C#CCNC(=O)c1c(C(=O)Nc2ccc(OC(F)F)cc2C)cccc1[N+](=O)[O-] [compound 870],A (100)
11,CC(C)NC(=O)c1c(C(=O)Nc2ccccc2F)cccc1[N+](=O)[O-] [compound 592],A (100)
12,COC(=O)c1cccc(C(=O)NC(C)C)c1C(=O)Nc1ccc(Cl)cc1C [compound 802],D (79-50)
13,Cc1cc(OC(F)F)ccc1NC(=O)c1c(F)cccc1C(=O)NC(C)C [compound 559],A (100)
14,Cc1ccc(F)cc1NC(=O)c1cccc([N+](=O)[O-])c1C(=O)NCC1CC1 [compound 860],A (100)
15,Cc1cc(Oc2cccc(C(F)(F)F)c2)ccc1NC(=O)c1c(I)cccc1C(=O)NC(C)C [compound 458],A (100)
